Data set [1] relates to bait averse/resistant German cockroach (IHOP strain), Blattella germanica. The data set can be described thus: Knockdown/mortality of male cockroaches under continuous exposure on treated glazed tile. The format is in vivo. The settings on record: Table 28, aqueous deltamethrin/adjuvant, IHOP strain. The procedure: Treatments were allowed to dry overnight. […] Treatments were replicated a minimum of three times. Evaluations for cockroach knockdown/mortality were made at various intervals for 1 hour and at 24 hours after exposure.
Treatments were allowed to dry overnight. […] Evaluations for cockroach knockdown/mortality were made at various intervals and at 60 minutes after exposure.
Treatments were allowed to dry overnight. […] Treatments were replicated a minimum of three times.

Data set [2] relates to bait averse/resistant German cockroach (T-164 strain). Described as above. It counts as in vivo, Blattella germanica. Details: Average % Knockdown & Mortality after 5 hr / Average % Knockdown & Mortality after 30 min: concentration or dose not given beside the values. The settings on record: glazed tile.

On to `CC1(C)[C@H](C(=O)O[C@H](C#N)c2cccc(Oc3ccccc3)c2)[C@@H]1C=C(Br)Br` [deltamethrin (1%)], for which the “Average % Mortality after 10 min” value in data set [1] (10 min) is reported as 20%. For the same molecule, the “Average % Mortality after 30 min” value in data set [1] (30 min) was 93%. For the same molecule, the “Average % Mortality after 60 min” value in data set [1] (60 min) worked out at 100%. Also, the “Average % Mortality after 24 hr” value in data set [1] (24 hr) was found to be 100%.

Take `O=[N+]([O-])NC1=NCCN1Cc1ccc(Cl)nc1` [imidacloprid]: the “Average % Knockdown & Mortality after 45 min” value in data set [2] (45 min, Table 24, imidacloprid/dibutyl sebacate (DBS) in acetone, T-164 strain) worked out at 0%. In addition, the “Average % Knockdown & Mortality after 3 hr” value is recorded as 7% in data set [2] (3 hr, Table 23, imidacloprid/tritylchloride in acetone, T-164 strain) and 7% in data set [2] (Table 21 (Ex. 18), continuous exposure). Besides, the “Average % Knockdown & Mortality after 15 min” value turned out to be 0% in data set [2] (Table 5 (Ex. 2), continuous exposure); 0% in data set [2] (Table 6 (Ex. 3), continuous exposure); 0% in data set [2] (Table 9 (Ex. 6), continuous exposure); 0% in data set [2] (Table 11 (Ex. 8), continuous exposure). The “Average % Knockdown & Mortality after 4 hr” value amounted to 0% in data set [2] (Table 13 (Ex. 10), continuous exposure); 20% in data set [2] (Table 15 (Ex. 12), continuous exposure); 47% in data set [2] (Table 18 (Ex. 15), continuous exposure). In data set [2] (Table 17 (Ex. 14), continuous exposure), the “Average % Knockdown & Mortality after 5 hr” value was determined as 19%.

The values above are taken from US9028856B2, “Synergistic pesticide compositions” (priority 2008, dated 2015).
